Data published in PubChem BioAssay (NCI).
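Following 48 hours of exposure in 96-well plates, responses at five concentrations were used to interpolate endpoints linearly. GI50: concentration for 50% inhibition of growth. TGI: total growth inhibition.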 *1 amine or outer side, *2 acyl side, *3 side chain or, on linkers, in order; H or OH if unused. Where a SMILES comes first, the peptide text is derived from it. CO = O=C([*:1])[*:2]

Tests used:
Assay in all cases: NCI-60 cell line screen, 48 h
786-0 renal = tested on: 786-0 renal
COLO 205 colon = tested on: COLO 205 colon
HOP-92 NSCLC = tested on: HOP-92 NSCLC
K-562 leukemia = tested on: K-562 leukemia
M14 melanoma = tested on: M14 melanoma
MOLT-4 leukemia = tested on: MOLT-4 leukemia
NCI-H23 lung = tested on: NCI-H23 lung
OVCAR-4 ovarian = tested on: OVCAR-4 ovarian
SK-MEL-2 melanoma = tested on: SK-MEL-2 melanoma
PC-3 prostate = tested on: PC-3 prostate

Row | SMILES | TGI (786-0 renal) [µM] | TGI (COLO 205 colon) [µM] | TGI (HOP-92 NSCLC) [µM] | TGI (K-562 leukemia) [µM] | TGI (M14 melanoma) [µM] | TGI (MOLT-4 leukemia) [µM] | TGI (NCI-H23 lung) [µM] | TGI (OVCAR-4 ovarian) [µM] | TGI (SK-MEL-2 melanoma) [µM] | GI50 (786-0 renal) [µM] | GI50 (COLO 205 colon) [µM] | GI50 (HOP-92 NSCLC) [µM] | GI50 (M14 melanoma) [µM] | GI50 (NCI-H23 lung) [µM] | GI50 (OVCAR-4 ovarian) [µM] | GI50 (PC-3 prostate) [µM] | TGI (PC-3 prostate) [µM] | GI50 (K-562 leukemia) [µM] | GI50 (SK-MEL-2 melanoma) [µM] | GI50 (MOLT-4 leukemia) [µM]
1 | N#Cc1c(C(N)=O)ncn1Cc1ccccc1 | > 100 | > 100 | > 100 | > 100 | > 100 | > 100 | > 100 | > 100 | > 100 | – | – | – | – | – | – | – | – | – | – | –
2 | O=C1CC(c2ccccc2)NCN1 (stereo unspecified) | > 100 | > 100 | – | > 100 | > 100 | > 100 | > 100 | > 100 | > 100 | – | – | – | – | – | – | – | – | – | – | –
3 | CCCCCCCCO/N=C\c1c2c(O)c3c(O)c(C)c4c(c3c1O)C(=O)C(C)(O/C=C\C(OC)C(C)C(OC(C)=O)C(C)C(O)C(C)C(O)C(C)/C=C\C=C(\C)C(=O)N2)O4 (stereo unspecified) | 2.77 | 3.59 | 5.32 | – | 5.4 | – | 6.55 | 5.58 | – | 1.13 | 1.35 | 1.38 | 1.57 | 1.74 | 1.61 | 1.82 | 7.02 | – | – | –
4 | CCC12CC[C@H](C#N)N3CCc4c(n(c5ccccc45)C(=O)C1)C32 (stereo partly specified) | 34.1 | 43.1 | – | 35 | 44.9 | 52 | 41.8 | 31.7 | 31.9 | – | – | – | – | – | – | – | – | – | – | –
5 | NC1=NN(c2ccccc2)C(=O)C1C(=O)C(=O)Nc1cccc(C(F)(F)F)c1 (stereo unspecified) | > 100 | > 100 | > 100 | > 100 | > 100 | > 100 | > 100 | > 100 | > 100 | – | – | – | – | – | – | – | – | – | – | –
6 | CCN(CC)CCCN1C(=O)c2c(c(C)c3c(oc4cc(O)ccc43)c2C)C1=O | 3.43 | 3.13 | 3.02 | 0.464 | 3.28 | – | 3.72 | 3.55 | 32.6 | 1.8 | 1.56 | 1.48 | 1.8 | 1.85 | 1.84 | – | – | 0.188 | 15.7 | –
7 | CCN(CC)CCCC(C)N/C(c1cccc(OC)c1)=c1\c(=O)[nH]n(-c2c3ccccc3nc3ccccc23)c(=O)\c1=C(/NC(C)CCCN(CC)CC)c1cccc(OC)c1 (stereo unspecified) | 3.04 | 2.79 | – | 5.64 | 4.1 | 3.89 | 4.69 | 4.11 | – | 1.17 | 1.22 | – | 2.01 | 2.02 | 1.22 | 1.2 | 4.97 | 1.41 | – | 0.6
8 | O=C(O/N=C1/CCC/C1=C\c1ccccc1)c1ccccc1 | > 100 | > 100 | > 100 | > 100 | > 100 | 78.1 | > 100 | > 100 | > 100 | – | – | – | – | – | – | – | – | – | – | –
9 | O[C@H]1[C@H]2[C@H](O)CCCN2C[C@H]1O | > 100 | > 100 | > 100 | – | > 100 | > 100 | > 100 | > 100 | > 100 | – | – | – | – | – | – | – | – | – | – | –
10 | CC(=O)[CH-]C(C)=O.CC(=O)[CH-]C(C)=O.CC(=O)[CH-]C(C)=O.[Cl-].[Hf+4] | > 100 | > 100 | > 100 | > 100 | > 100 | > 100 | > 100 | > 100 | > 100 | > 100 | > 100 | > 100 | > 100 | > 100 | > 100 | – | – | > 100 | > 100 | > 100
11 | COc1cc(-c2ccc(-[n+]3nc(-c4ccc([N+](=O)[O-])cc4)nn3-c3ccc([N+](=O)[O-])cc3)c(OC)c2)ccc1-[n+]1nc(-c2ccc([N+](=O)[O-])cc2)nn1-c1ccc([N+](=O)[O-])cc1 | 23.2 | – | – | > 44.6 | 67.2 | > 82 | 47.1 | 55.7 | 17.9 | 3.45 | – | – | 14.9 | 3.76 | 3.56 | 12.8 | 36.5 | 3.39 | 4.29 | 2.98
12 | C/C(=N\[N+](C)(C)C)C(c1ccccc1)C1(c2ccccc2)C(c2ccccc2)=C1c1ccccc1 (stereo unspecified) | > 100 | – | > 100 | > 100 | > 100 | > 100 | > 100 | > 100 | > 100 | – | – | – | – | – | – | – | – | – | – | –
13 | Cn1cc(C(=O)/C(Cl)=C(\Cl)C(=O)O)c2ccccc21 | > 100 | – | – | > 100 | > 100 | > 100 | > 100 | > 100 | > 100 | – | – | – | – | – | – | – | – | – | – | –
14 | COc1ccc(C(=O)O)c2c(=O)c3ccccc3[nH]c12 | > 100 | > 100 | > 100 | > 100 | > 31.6 | > 100 | > 100 | > 100 | > 100 | – | – | – | – | – | – | – | – | – | – | –
15 | CO/C=C/c1cc2c(cc1C(OC)OC)OCO2 | > 100 | – | > 100 | > 100 | 87.9 | > 100 | > 100 | > 100 | > 100 | – | – | – | – | – | – | – | – | – | – | –
16 | CC(=O)O[C@H]1C(=O)[C@@]2(C)[C@H]([C@H](OC(=O)c3ccccc3)[C@]3(O)C[C@H](OC(=O)[C@H](OC(=O)CCC(=O)OC4CCC(S/N=C(N)/N=C(\N)N(C)C)CC4)[C@@H](NC(=O)c4ccccc4)c4ccccc4)C(C)=C1C3(C)C)[C@]1(OC(C)=O)CO[C@@H]1C[C@@H]2O (stereo partly specified) | > 50 | 0.0406 | – | > 50 | – | > 50 | > 50 | > 50 | – | 0.115 | 0.00952 | – | – | 0.0166 | 0.0444 | 0.0155 | > 50 | 0.00692 | – | 0.0154
17 | CC(C)C(NC(=O)C(CCCN=C(N)N)NC(=O)NC(Cc1ccccc1)C(=O)O)C(=O)NC(C=O)CCCN=C(N)N (stereo not drawn) ({Phe-CO}-Arg-Val-Arg-aldehyde; configuration not given here) | > 5 | > 5 | – | > 5 | > 5 | – | > 5 | > 5 | > 5 | > 5 | > 5 | – | > 5 | > 5 | > 5 | > 5 | > 5 | > 5 | > 5 | –
18 | COC1=CC(C)C2C[C@H]3O[C@H](O)C[C@H]4C(C)C(=O)C(O)C([C@@]2(C)C1=O)[C@@]34C (stereo partly specified) | > 100 | > 100 | > 100 | > 100 | > 100 | > 100 | > 100 | – | – | – | – | – | – | – | – | – | – | – | – | –
19 | CC(=O)Oc1cc2c(=O)oc3c(OC(C)=O)c(OC(C)=O)c(OC(C)=O)c4c(=O)oc(c1OC(C)=O)c2c34 | > 100 | > 100 | 96.9 | > 100 | > 100 | > 100 | > 100 | > 100 | > 100 | – | – | – | – | – | – | – | – | – | – | –
20 | O=C(Nc1nc(-c2ccc(Cl)cc2)cs1)c1ccc(O)c(O)c1 | 15.3 | 26.5 | 9.18 | 20 | 20.5 | 12.3 | 20.3 | 35.9 | – | 4.07 | 11.4 | 2.67 | 4.87 | 4.27 | 4.33 | – | – | 3.46 | – | 2.48
21 | COc1ccc(C2c3cc4c(cc3OC(O)(CO)C2C(=O)O)OCO4)c(OC)c1OC (stereo unspecified) (tested in a mixture with another compound) | > 100 | > 100 | > 100 | > 100 | > 100 | > 100 | > 100 | > 100 | > 100 | – | – | – | – | – | – | – | – | – | – | –
22 | O=C(Nc1ccc(N=Nc2ccccc2)cc1)Sc1ccccc1C(=O)O | > 100 | > 100 | – | > 100 | > 100 | > 100 | > 100 | > 100 | > 100 | – | – | – | – | – | – | – | – | – | – | –
23 | Cc1cc(Nc2nc(N3CCOCC3)nc3ccccc23)n[nH]1 | 26.1 | 11.9 | 62.8 | > 100 | > 100 | 77.9 | – | > 100 | > 100 | 3.91 | 3.09 | 4.22 | 7.14 | – | 7.26 | – | – | 5.14 | 5.2 | 15
24 | Cc1ccc(C2=NN(C)COC2C(F)(F)F)cc1 (stereo unspecified) | > 100 | > 100 | > 100 | > 100 | > 100 | > 100 | > 100 | > 100 | > 100 | – | – | – | – | – | – | – | – | – | – | –
25 | CC1CC(C)C(=O)C(C(=O)CC2CC(=O)NC2=O)C1 (stereo unspecified) | > 100 | > 100 | > 100 | > 100 | > 100 | – | > 100 | > 100 | – | – | – | – | – | – | – | – | – | – | – | –
26 | O=C(CC1(O)C(=O)Nc2ccccc21)c1ccc(O)cc1O (stereo unspecified) | > 100 | > 100 | > 100 | > 100 | > 100 | > 100 | > 100 | > 100 | > 100 | – | – | – | – | – | – | – | – | – | – | –
27 | C/C=C/CP(=O)(c1ccccc1)c1ccccc1 | > 100 | > 100 | – | > 100 | > 100 | > 100 | > 100 | > 100 | > 100 | – | – | – | – | – | – | – | – | – | – | –
